The source of these data is patent publication US6372774B1, “Derivatives of N-phenylpyrazoles” (Rhone-Poulenc Agriculture Ltd., priority 1985, dated 2002).

One may read the mortality as the percentage killed.

Read-outs that look alike come from different tables or passages of the source.

Type in all cases: in vivo
Assay [1] deals with Megoura viciae (Vetch Aphid). Briefly: Test 3 b): spray of infested tic bean plants, Megoura viciae. As to conditions: for mortality at 50 ppm: Megoura viciae, read-out: mortality of Megoura viciae; for score from 4 replicates, Megoura viciae: Test 3 method (b), application of 50 ppm, score 0-3 per replicate, maximum 12. On the procedure: (§1) One or more dilutions of the compounds to be tested were made in 50% aqueous acetone.
b) Megoura viciae (Vetch Aphid)
Potted tic bean plants previously infected with mixed stages of Megoura were sprayed to run-off using a laboratory turntable sprayer. Treated plants were held in a greenhouse for 2 days and were assessed for aphid mortality using a scoring system, judging the response in comparison with plants treated with 50% aqueous acetone alone, as controls.

The test system of assay [2] is Phaedon cochleariae (Mustard Beetle). Briefly: Test 3 a): leaf disc spray test, Phaedon cochleariae larvae. As to conditions: for mortality at 5 ppm / pest or weed control at 10 ppm: Phaedon cochleariae, foliar; for mortality at 5 ppm: read-out: mortality of larvae of Phaedon cochleariae; for pest or weed control at 10 ppm: read-out: Phaedon % m 10 ppm.
Description: as §1
(§2) a) Test species: Plutella xylostella (Diamond-back Moth) and Phaedon cochleariae (Mustard Beetle)
(§3) Turnip leaf discs were set in agar in petri-dishes and infected with 10 larvae (2nd instar Plutella or 3rd instar Phaedon). Four replicate dishes were assigned to each treatment and were sprayed under a Potter Tower with the appropriate test dilution. Four or five days after treatment the dishes were removed from the constant temperature (25° C.) room in which they had been held and the mean percentage mortalities of larvae were determined.

Assay [3] concerns Plutella xylostella (Diamond-back Moth). In words: whole plant or invertebrate. To be noted: foliar; for mortality at 500 ppm: read-out: mortality of larvae of Plutella xylostella; for pest or weed control at 500 ppm: read-out: Plutella % m 500 ppm.
Description: as §1, §2, §3

[4] abbreviates: Tables 1-3, % mortality at 10 ppm.

Consider `Cc1nn(-c2c(Cl)cc(C(F)(F)F)cc2Cl)c(N)c1S(C)(=O)=O` [Compound 161, 5-Amino-1-(2,6-dichloro-4-trifluoromethylphenyl)-4-methanesulphonyl-3-methylpyrazole], for which, in assay [1], the mortality at 50 ppm is 100% and the “score from 4 replicates, Megoura viciae” value came out at 12. The mortality at 5 ppm in assay [2] stood at 100%.

In the case of `CCSNc1c(C#N)c(C)nn1-c1c(Cl)cc(C(F)(F)F)cc1Cl` [Compound 117, 4-Cyano-1-(2,6-dichloro-4-trifluoromethylphenyl)-3-methyl-5-ethanesulphenylaminopyrazole], the “Megoura score/12 at 10 ppm” value in assay [1] (Table 3, value marked +: score at 10 ppm) was 10+. Further, the pest or weed control at 10 ppm in assay [2] was found to be 68%.

For the compound `N#Cc1nn(-c2c(Cl)cc(SC(F)(F)F)cc2Cl)c(N)c1C#N` [Compound 156, 5-Amino-3,4-dicyano-1-(2,6-dichloro-4-trifluoromethylthiophenyl)pyrazole], in assay [1], the mortality at 50 ppm was found to be 100% and the “score from 4 replicates, Megoura viciae” value amounted to 12.

As for `CCSc1c(C)nn(-c2c(Cl)cc(C(F)(F)F)cc2Cl)c1N` [Compound 225, 5-Amino-1-(2,6-dichloro-4-trifluoromethylphenyl)-4-ethylthio-3-methylpyrazole], in assay [1], the mortality at 50 ppm stood at 100% and the “score from 4 replicates, Megoura viciae” value is on record as 12.

Regarding `CN(C)S(=O)(=O)c1c(C(F)(F)F)nn(-c2c(Cl)cc(C(F)(F)F)cc2Cl)c1N` [Compound 153, 5-Amino-1-(2,6-dichloro-4-trifluoromethylphenyl)-4-(N,N-dimethylsulphamoyl)-3-trifluoromethylpyrazole], the “Megoura score/12 50 ppm” value in assay [1] (Tables 1 and 3, 50 ppm, sum of scores 0-3 of 4 replicates) is 11. Besides, the pest or weed control at 10 ppm in assay [2] came out at 100%.

Take “5-Amino-3-chlorofluoromethyl-4-cyano-1-(2,6-dichloro-4-trifluoromethylphenyl)pyrazole [Compound 166]”: in assay [1], the “score from 4 replicates, Megoura viciae” value was 12.

`Cc1nn(-c2c(Cl)cc(C(F)(F)F)cc2Cl)c(N)c1[N+](=O)[O-]` [Compound 191, 5-Amino-1-(2,6-dichloro-4-trifluoromethylphenyl)-3-methyl-4-nitropyrazole]: in assay [1], the mortality at 50 ppm was 100% and the “score from 4 replicates, Megoura viciae” value was found to be 12.

Take `CCOC(=O)Nc1c([N+](=O)[O-])c(C(F)(F)F)nn1-c1c(Cl)cc(C(F)(F)F)cc1Cl` [Compound 179, 1-(2,6-Dichloro-4-trifluoromethylphenyl)-5-ethoxycarbonylamino-4-nitro-3-trifluoromethylpyrazole]: the mortality at 500 ppm in assay [3] amounted to 100%. In assay [2], the mortality at 5 ppm is 100%.

Take “5-Amino-3-chlorodifluoromethyl-1-(2,6-dichloro-4-trifluoromethylphenyl)-4-cyanopyrazole [Compound 128]”: in assay [1], the “score from 4 replicates, Megoura viciae” value is reported as 12. For the same compound, the “Phaedon % m 10 ppm” value in assay [2] (setting [4]) turned out to be 100%.

For `Cc1nn(-c2c(Cl)cc(C(F)(F)F)cc2Cl)c(N)c1S(=O)(=O)C(Cl)(Cl)Cl` [Compound 224, 5-Amino-1-(2,6-dichloro-4-trifluoromethylphenyl)-4-trichloromethanesulphonyl-3-methylpyrazole], in assay [1], the mortality at 50 ppm came out at 100% and the “score from 4 replicates, Megoura viciae” value worked out at 12. Also, in assay [2], the mortality at 5 ppm stood at 100%.

Regarding `N#Cc1nn(-c2c(Cl)cc(C(F)(F)F)cc2Cl)c([N+](=O)[O-])c1C#N` [Compound 201, 1-(2,6-Dichloro-4-trifluoromethylphenyl)-3,4-dicyano-5-nitropyrazole], in assay [1], the mortality at 50 ppm was found to be 100% and the “score from 4 replicates, Megoura viciae” value is on record as 12.

As to `N#Cc1cn(-c2c(Cl)cc(C(F)(F)F)cc2Cl)nc1[N+](=O)[O-]` [Compound 200, 1-(2,6-Dichloro-4-trifluoromethylphenyl)-4-cyano-3-nitropyrazole], in assay [1], the mortality at 50 ppm stood at 100% and the “score from 4 replicates, Megoura viciae” value amounted to 12.

Take `N#Cc1c(C(F)(F)C(F)(F)C(F)(F)F)nn(-c2c(Cl)cc(C(F)(F)F)cc2Cl)c1N` [Compound 155, 5-Amino-4-cyano-1-(2,6-dichloro-4-trifluoromethylphenyl)-3-heptafluoropropylpyrazole]: the pest or weed control at 500 ppm in assay [3] (Tables 1-2, % mortality at 500 ppm) stood at 96%. For the same compound, in assay [2] (setting [4]), the pest or weed control at 10 ppm came to 100%.

In the case of `Nc1c(Cl)c(C(F)(F)F)nn1-c1c(Cl)cc(C(F)(F)F)cc1Cl` [Compound 148, 5-Amino-4-chloro-1-(2,6-dichloro-4-trifluoromethylphenyl)-3-trifluoromethylpyrazole], the pest or weed control at 500 ppm in assay [3] came out at 98%. Further, the pest or weed control at 10 ppm in assay [2] came to 21%.

Turning to `Cc1nn(-c2c(Cl)cc(C(F)(F)F)cc2Cl)c(N)c1C#N` [Compound 112, 5-Amino-4-cyano-1-(2,6-dichloro-4-trifluoromethylphenyl)-3-methylpyrazole], in assay [1], the mortality at 50 ppm came to 100% and the “score from 4 replicates, Megoura viciae” value is 12. The pest or weed control at 10 ppm in assay [2] turned out to be 98%.

Turning to `Cc1nn(-c2c(Cl)cc(C(F)(F)F)cc2Cl)c(N)c1I` [Compound 190, 5-Amino-1-(2,6-dichloro-4-trifluoromethylphenyl)-4-iodo-3-methylpyrazole], in assay [1], the mortality at 50 ppm amounted to 100% and the “score from 4 replicates, Megoura viciae” value stood at 12.

`CSc1c(C)nn(-c2c(Cl)cc(C(F)(F)F)cc2Cl)c1N` [Compound 226, 5-Amino-1-(2,6-dichloro-4-trifluoromethylphenyl)-3-methyl-4-methylthiopyrazole]: in assay [1], the mortality at 50 ppm turned out to be 100% and the “score from 4 replicates, Megoura viciae” value was 12. Moreover, in assay [2], the mortality at 5 ppm worked out at 100%.

For `COC(=O)Nc1c(C#N)c(C(F)(F)F)nn1-c1c(Cl)cc(C(F)(F)F)cc1Cl` [Compound 212, 4-Cyano-1-(2,6-dichloro-4-trifluoromethylphenyl)-5-methoxycarbonylamino-3-trifluoromethylpyrazole], the mortality at 500 ppm in assay [3] amounted to 100%. In assay [2], the mortality at 5 ppm came out at 100%.

With `CC[S+]([O-])c1c(C(F)(F)F)nn(-c2c(Cl)cc(C(F)(F)F)cc2Cl)c1N` (stereo not drawn) [Compound 217, 5-Amino-1-(2,6-dichloro-4-trifluoromethylphenyl)-4-ethylsulphinyl-3-trifluoromethylpyrazole], in assay [1], the mortality at 50 ppm was found to be 100% and the “score from 4 replicates, Megoura viciae” value stood at 12. For the same compound, the mortality at 5 ppm in assay [2] is 100%.

As to `Cc1c(C#N)c(C(F)(F)F)nn1-c1c(Cl)cc(C(F)(F)F)cc1Cl` [Compound 152, 4-Cyano-1-(2,6-dichloro-4-trifluoromethylphenyl)-5-methyl-3-trifluoromethylpyrazole], the mortality at 500 ppm in assay [3] is 100%. In assay [2], the pest or weed control at 10 ppm is 100%.

On to `C[S+]([O-])c1c(C(F)(F)F)nn(-c2c(Cl)cc(C(F)(F)F)cc2Cl)c1N` (stereo not drawn) [Compound 216, 5-Amino-1-(2,6-dichloro-4-trifluoromethylphenyl)-4-methylsulphinyl-3-trifluoromethylpyrazole], for which the mortality at 500 ppm in assay [3] stood at 100%. The mortality at 5 ppm in assay [2] was determined as 100%.

As to `CSc1c(C#N)c(C(F)(F)F)nn1-c1c(Cl)cc(C(F)(F)F)cc1Cl` [Compound 207, 4-Cyano-1-(2,6-dichloro-4-trifluoromethylphenyl)-5-methylthio-3-trifluoromethylpyrazole], the mortality at 500 ppm in assay [3] is 100%. Besides, in assay [2], the mortality at 5 ppm came out at 100%.

In the case of `CC(C)(C)C(=O)Nc1c(C#N)c(C(F)(F)F)nn1-c1c(Cl)cc(C(F)(F)F)cc1Cl` [Compound 139, 4-Cyano-1-(2,6-dichloro-4-trifluoromethylphenyl)-5-(2,2-dimethylpropionamido)-3-trifluoromethylpyrazole], the mortality at 500 ppm in assay [3] stood at 100%. In assay [2], the pest or weed control at 10 ppm worked out at 16%.

For `Nc1c(Br)c(C(F)(F)F)nn1-c1c(Cl)cc(C(F)(F)F)cc1Cl` [Compound 140, 5-Amino-4-bromo-1-(2,6-dichloro-4-trifluoromethylphenyl)-3-trifluoromethylpyrazole], in assay [3], the mortality at 500 ppm amounted to 100%. Further, the pest or weed control at 10 ppm in assay [2] was 84%.

On to `CSc1c(C(F)(F)F)nn(-c2c(Cl)cc(C(F)(F)F)cc2Cl)c1N` [Compound 229, 5-Amino-1-(2,6-dichloro-4-trifluoromethylphenyl)-4-methylthio-3-trifluoromethylpyrazole], for which, in assay [3], the mortality at 500 ppm was found to be 100%. Besides, the mortality at 5 ppm in assay [2] came to 100%.

As to `N#Cc1c(I)nn(-c2c(Cl)cc(C(F)(F)F)cc2Cl)c1N` [Compound 116, 5-Amino-3-iodo-4-cyano-1-(2,6-dichloro-4-trifluoromethylphenyl)pyrazole], the mortality at 500 ppm in assay [3] amounted to 100%. In addition, the pest or weed control at 10 ppm in assay [2] was 93%.

On to `CS(=O)(=O)c1c(C(F)(F)F)nn(-c2c(Cl)cc(C(F)(F)F)cc2Cl)c1N` [Compound 130, 5-Amino-1-(2,6-dichloro-4-trifluoromethylphenyl)-4-methanesulphonyl-3-trifluoromethylpyrazole], for which the mortality at 500 ppm in assay [3] turned out to be 100%. The pest or weed control at 10 ppm in assay [2] came to 100%.

For the compound `CN(C)c1c(C#N)c(C(F)(F)F)nn1-c1c(Cl)cc(C(F)(F)F)cc1Cl` [Compound 136, 4-Cyano-1-(2,6-dichloro-4-trifluoromethylphenyl)-5-dimethylamino-3-trifluoromethylpyrazole], in assay [3], the mortality at 500 ppm is 100%. Also, in assay [2], the pest or weed control at 10 ppm came to 56%.
